Where two headings read alike, the source gives them in different places.
What was measured:
[1] = system: barbiturate-anesthetized dogs; test: Anesthetized dog: inotropic effect (dP/dt) and inhibition of the isoproterenol response; assay type: in vivo; conditions: for ED50: Canis lupus familiaris, iv, i.v. infusion, cumulative dose
Method: Inotropic effects were evaluated in barbiturate-anesthetized dogs by differentiating left intraventricular pressure. This procedure was carried out essentially as described by M.K. Grizzel et al in the FASEB Journal, Vol. 3, page 1039, abstract 4728 (1989). Purpose breed mongrel dogs (14-20 kg) of either sex were anesthetized with a mixture of sodium pentobarbital (15 mg/kg) and sodium barbital (300 mg/kg) i.v., intubated with a cuffed endotracheal tube and ventilated with a respirator (Harvard Apparatus, model 613, South Natick, MA) with room air (22 rpm,10-12 ml/kg/stroke). A 5F pressure transducer (Millar Instruments, Mikkro-tip Houston, TX) was inserted through the right carotid artery into the left ventricle to monitor intraventricular pressure. The left ventricular pressure signal was differentiated (using a 100 Hz low pass differential amplifier, Gould Inc., Cleveland, OH) to obtain its maximal rate of rise (+dP/dt), and used to trigger a biotach amplifier to record heart rate. Cardiac output was determined via thermodilution with a Spectramed computer (Starcom, Oxnard, CA) and a 5F Swan Ganz catheter which was inserted into the right jugular vein and positioned in the pulmonary artery. The femoral artery was cannulated for monitoring arterial blood pressure with a pressure transducer (Micron model MP15D, Simi Valley, CA). A lead II electrocardiogram was measured using subcutaneous electrodes. […] Rectal temperature was monitored and maintained at 37-38°C with a heating pad (Baxter Health Care model K20, McGaw Park, IL). All variables were recorded using a Gould 3800S physiograph.
Isoproterenol ([…]) was injected i.v. into the cephalic vein at 10 min intervals except for when the test drug infusion was begun. […] Inhibition of the isoproterenol responses on contractility (dP/dt), heart rate and diastolic blood pressure were determined at each dose of test compound. The inotropic effect of each compound was determined by comparing the level of dP/dt at the end of each 10 min period to that of the level of dP/dt just prior to the infusion of test compound. […]

rat aorta = test: Rat aorta protocol: relaxation of phenylephrine-contracted rat aorta rings (endothelium removed); conditions: percentage of maximal relaxation produced by nitroprusside (1 X 10⁻⁴ M), at the highest dose tested (100 micromolar), read-out: maximal response
Method: Such vasorelaxation appears to be related to inhibition of the phosphodiesterase (PDE) isozyme related to the cardiac sarcoplasmic reticulum. Thus, relaxation of rat aorta can be used as a screen to eliminate compounds which are not PDE inhibitors prior to testing for actual inotropic activity.
Rings of rat aorta (endothelium removed) were prepared for the measurement of isometric force in isolated tissue organ chambers essentially as previously described by T.J. Rimele et al in the Journal of Pharmacol. Exp. Ther. 245:102-111 (1988). The experimental portion of the protocol began with the addition of methylene blue (1 X 10⁻⁵ M) and propranolol (1 X 10⁻⁶ M) to each organ chamber to inhibit basal cGMP accumulation due to soluble guanylate cyclase and beta-adrenoceptors. Phenylephrine (1 X 10⁻⁷ M) was then added and the rings were allowed to obtain a stable contractile response after which time, the test compound was added in a cumulative fashion. The relaxation induced by each concentration of the test compound was expressed as a percentage of the maximal relaxation produced by nitroprusside (1 X 10⁻⁴ M). […] The IC₅₀ (concentration of test compound which produced a relaxation equivalent to 50% of the maximal relaxation induced by nitroprusside) was determined for each tissue. […]

guinea-pigs left atria = test: Guinea pig left atria test: force of atrial contraction; conditions: Cavia porcellus
Text: Male Hartley guinea-pigs (300-400 grams) were sacrificed by cervical dislocation or carbon dioxide asphyxiation. The hearts were immediately removed and placed in oxygenated Krebs-Henseleit buffer (composition (millimolar): Na⁺ 143, K⁺ 5.9, Ca⁺⁺ 1.25, Mg⁺⁺ 1.2, Cl⁻ 128, HCO₃⁻ 25, SO₄⁻⁻ 1.2, H₂PO₄⁻ 1.0, and D-glucose 10). Left atria were dissected away from the remainder of the heart and mounted on holders against platinum punctate electrodes. The mounted atria were placed in tissue baths maintained at 31°C and oxygenated with 95% 0₂-5% CO₂ under 1.0 gram resting tension. The atria were stimulated through the punctate electrode and an external platimum electrode at the threshold voltage plus thirty percent, one Hertz frequency and five to ten milliseconds duration. Contractions were detected with a force displacement transducer and recorded on a physiograph. […]
Direct effects of the test compounds on the force of atrial contraction were observed and recorded after addition of the compounds to the tissue bath. […] Responses to the test compounds and forskolin were expressed as a percentage of the maximal response to forskolin. EC₅₀ values for the test compounds were calculated as the concentration of the compound neceesary to produce an inotropic response half that of the maximal response produced by the test compound. […]

Beta-1 adrenoceptor = target: T1, Beta-1 adrenoceptor (Rattus norvegicus, UniProt P18090); test: Beta adrenoceptor binding assay: [I-125]-Pindolol displacement from rat brain cortical membranes; conditions: IC₅₀ for displacement of [I-125]-Pindolol, 22°C, two hours, read-out: pIC₅₀ (converted)
T1 construct: rat brain cortices were used as the source of membrane vesicles; from tissue; host or cells: rat brain cortex membranes
Method: Because of its receptor density rat brain cortices were used as the source of membrane vesicles to be used in the receptor binding assays. Freshly excised cortexes were homogenized in 20 volumes (w/v) 50 mM TRIS HCl Buffer (pH 7.5), with a glass/Teflon homogenizer following the procedure previously described by T.J. Rimele in J. Pharmacol. Exp. Ther. 239: 1-8, 1986. Beta-1 adrenoceptor binding activity was determined following methods described by M.H. Randall, et al, J. Med. Chem. 20: 1090-1094, 1977, and J. Homberger, et al in Mol. Pharmacol. 20: 453-469, 1981. The incubation mixture consisted of; 26 microliters of 50 mM TRIS/HCl, 10 mM MgCl₂ pH 7.6 buffer, 25 microliters of test drug or 10-6 pindolol to define nonspecific binding, 100 microliters of [I-125]-Pindolol (2200 Ci/mM) at a final concentration of 10-9, and 100 microliters of brain cortical membranes. […] The radioactivity in each filter containing the trapped membrane particles was counted with a gamma counter. […] All specific binding values obtained in the presence of test compounds were expressed as the percentage of specific binding displaced by the individual agents. The resultant values were plotted on a log plot of concentration of test compound vs. percentage of displacement and an IC₅₀ value (drug concentration which produces 50% displacement) determined. […]

T1 sequence (P18090 whole entry): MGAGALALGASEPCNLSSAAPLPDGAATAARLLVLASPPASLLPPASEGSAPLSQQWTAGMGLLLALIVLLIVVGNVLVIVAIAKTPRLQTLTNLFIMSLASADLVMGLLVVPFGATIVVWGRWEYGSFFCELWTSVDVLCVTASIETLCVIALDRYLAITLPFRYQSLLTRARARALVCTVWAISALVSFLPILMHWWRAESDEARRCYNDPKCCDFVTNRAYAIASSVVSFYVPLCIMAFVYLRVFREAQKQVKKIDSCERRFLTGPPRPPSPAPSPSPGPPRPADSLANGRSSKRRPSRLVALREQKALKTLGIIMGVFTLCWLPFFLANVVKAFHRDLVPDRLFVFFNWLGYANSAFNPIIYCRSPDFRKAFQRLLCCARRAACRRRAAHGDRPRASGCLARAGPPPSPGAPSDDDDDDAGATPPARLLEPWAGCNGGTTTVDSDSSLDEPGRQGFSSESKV

EC50 (guinea-pigs left atria; concentration producing an inotropic response half that of the maximal response produced by the test compound, read-out: ED₅₀): 9 µM
IC50 (Beta-1 adrenoceptor): 0.0269 µM
SMILES: O=C(COc1ccc(C2=NNC(=O)CC2)cc1Cl)NCCNC[C@H](O)COc1ccccc1 [Example 19, 6-{4-[N-[2-[3-phenoxy-2-hydroxypropylamino]ethyl]carbamoylmethoxy]-3-chlorophenyl}-4,5-dihydro-3(2H)-pyridazinone]
ED50 ([1]; 50% increase in dP/dt compared to a baseline established prior to drug infusion, read-out: inotropic ED₅₀): 0.114 µmol/kg
ED50 ([1]; 50% inhibition of the dP/dt response to isoproterenol, read-out: ED₅₀ for inhibition of the isoproterenol response): 0.469 µmol/kg
inotropic effects with atenolol ([1]; whether the inotropic effects are blocked by atenolol): not blocked by atenolol
Emax at 100 µM (rat aorta): 100%
Emax at 100 µM (guinea-pigs left atria; percentage of the maximal response to forskolin, at 100 micromolar, propranolol and phentolamine (1.0 micromolar) present): 83%

From patent EP0412814A2, “Pyridazinones having cardiotonic and beta blocking activity” (GLAXO WELLCOME INC., priority 1989, dated 1991)
